# Test results as given in PubChem BioAssay AID1918994 (Molecular Pharmacology Branch, DTP, NCI, 2023).
# System: 292921-168-R-J2-PDC complex spheroid growth
# Experiment: Anticancer human tumor 292921-168-R-J2-PDC patient-derived pancreatic carcinoma cell line growth inhibition [AhR]
# Settings: for IC50: curve of first compound; for viability, T/C: stronger effect = lower value
# Summary of the method: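 Complex tumor spheroids co-cultured with HUVEC and human MSC stroma; AhR antagonists tested in combination with standard-of-care and investigational agents. Top concentration at or near clinical Cmax (else 10 microM), half-log dilutions; growth expressed as percent test/control.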
# 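Further: spheroids exposed to compounds for seven days after three days of growth.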
structure (smiles),measurement,setting,value
CC(C)c1c(-c2ccccc2)nc2c(C#N)c[nH]n2c1=O + Cc1cncc(-c2nc(NCCc3c[nH]c4ccccc34)c3ncn(C(C)C)c3n2)c1,IC50,second compound 0.1 µM,> 10 µM
same,IC50,second compound 0.316 µM,> 10 µM
same,IC50,second compound 1 µM,> 10 µM
same,IC50,second compound 3.16 µM,> 10 µM
same,IC50,second compound 10 µM,0.386 µM
same,"viability, T/C","second compound 0.1 µM, first compound 0.0316 µM",103%
same,"viability, T/C","second compound 0.1 µM, first compound 0.1 µM",95.1%
same,"viability, T/C","second compound 0.1 µM, first compound 0.316 µM",89.7%
same,"viability, T/C","second compound 0.1 µM, first compound 1 µM",98.8%
same,"viability, T/C","second compound 0.1 µM, first compound 3.16 µM",97.4%
same,"viability, T/C","second compound 0.1 µM, first compound 10 µM",97.2%
same,"viability, T/C","second compound 0.316 µM, first compound 0.0316 µM",98.7%
same,"viability, T/C","second compound 0.316 µM, first compound 0.1 µM",98.8%
same,"viability, T/C","second compound 0.316 µM, first compound 0.316 µM",95.8%
same,"viability, T/C","second compound 0.316 µM, first compound 1 µM",99.8%
same,"viability, T/C","second compound 0.316 µM, first compound 3.16 µM",100%
same,"viability, T/C","second compound 0.316 µM, first compound 10 µM",92.7%
same,"viability, T/C","second compound 1 µM, first compound 0.0316 µM",91.2%
same,"viability, T/C","second compound 1 µM, first compound 0.1 µM",85.6%
same,"viability, T/C","second compound 1 µM, first compound 0.316 µM",88.9%
same,"viability, T/C","second compound 1 µM, first compound 1 µM",83.5%
same,"viability, T/C","second compound 1 µM, first compound 3.16 µM",75.4%
same,"viability, T/C","second compound 1 µM, first compound 10 µM",78.1%
same,"viability, T/C","second compound 3.16 µM, first compound 0.0316 µM",76.4%
same,"viability, T/C","second compound 3.16 µM, first compound 0.1 µM",76.3%
same,"viability, T/C","second compound 3.16 µM, first compound 0.316 µM",79%
same,"viability, T/C","second compound 3.16 µM, first compound 1 µM",67.1%
same,"viability, T/C","second compound 3.16 µM, first compound 3.16 µM",65.3%
same,"viability, T/C","second compound 3.16 µM, first compound 10 µM",62%
same,"viability, T/C","second compound 10 µM, first compound 0.0316 µM",51%
same,"viability, T/C","second compound 10 µM, first compound 0.1 µM",50.1%
same,"viability, T/C","second compound 10 µM, first compound 0.316 µM",56.2%
same,"viability, T/C","second compound 10 µM, first compound 1 µM",46.1%
same,"viability, T/C","second compound 10 µM, first compound 3.16 µM",43.9%
same,"viability, T/C","second compound 10 µM, first compound 10 µM",42.6%
